Test results taken from PubChem BioAssay (NCI).
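These data come from cells grown in 96-well plates and exposed to compound for 48 hours at five concentrations. GI50: concentration for 50% inhibition of growth. Definition used: TGI = concentration required for complete inhibition of growth.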

How the values were obtained:
Test in all cases: NCI tumour cell line growth inhibition, 48 h
[1] = tested on: CAKI-1 renal
[2] = tested on: HCC-2998 colon
[3] = tested on: HCT-116 colon
[4] = tested on: HOP-62 NSCLC
[5] = tested on: MCF7 breast
[6] = tested on: RPMI-8226 leukemia
[7] = tested on: SR leukemia
[8] = tested on: U251 CNS
[9] = tested on: UACC-257 melanoma
[10] = tested on: UO-31 renal

Row | SMILES | GI50 [1] [µM] | TGI [1] [µM] | GI50 [2] [µM] | TGI [2] [µM] | GI50 [3] [µM] | TGI [3] [µM] | GI50 [4] [µM] | TGI [4] [µM] | GI50 [5] [µM] | TGI [5] [µM] | GI50 [6] [µM] | TGI [6] [µM] | GI50 [7] [µM] | TGI [7] [µM] | GI50 [8] [µM] | TGI [8] [µM] | GI50 [9] [µM] | TGI [9] [µM] | GI50 [10] [µM] | TGI [10] [µM]
1 | COC(=O)c1cc2c(cc1Cl)SC1=NN(C)C(N(C)C)N1S2(=O)=O (centres undefined) | > 100 | > 100 | > 100 | > 100 | > 100 | > 100 | > 100 | > 100 | > 100 | > 100 | > 100 | > 100 | > 100 | > 100 | > 100 | > 100 | > 100 | > 100 | > 100 | > 100
2 | CCC1(O)C(=O)OCc2c1cc1n(c2=O)Cc2cc3c(NC(=O)CN)cccc3nc2-1 (centres undefined) | 0.205 | 8.37 | 5.07 | 25.6 | 1.01 | > 62.5 | 0.0847 | 0.622 | 0.181 | > 43.2 | 1.69 | 40.3 | 0.0262 | 0.183 | 0.16 | 12.1 | 2.09 | 24.3 | 0.595 | 4.82
3 | CSc1nc2sc3c(c2c(=O)n1-c1ccc(C(C)C)cc1)CCC(=O)C3 | 2.38 | 6.03 | 2.47 | 5.02 | 1.94 | 3.73 | 2.05 | 4.05 | 3.14 | 10.6 | 2.1 | 5.07 | 2.14 | 6.02 | 1.7 | 3.07 | 3.21 | 9.81 | 1.57 | 3.26
4 | CC1OC(OC2C(O)CC(OC3C(O)CC(OC4CCC5(C)C(CCC6C5CC(O)C5(C)C(C7=CC(=O)OC7)CCC65O)C4)OC3C)OC2C)CC(O)C1O (centres undefined) | 0.0416 | 0.204 | 0.146 | 0.451 | 0.0331 | 0.115 | 0.036 | 0.125 | 0.0436 | 0.196 | 0.0921 |  | 0.0244 | 0.0897 | 0.0514 | 0.165 | 0.126 | 0.256 | 0.0377 | 0.148
5 | Cc1cc[n+]2c(c1)-c1cc(C)cc[n+]1CC2 |  | > 100 |  | > 100 |  | > 100 |  | > 100 |  | > 100 |  | > 100 |  | > 100 |  | > 100 |  | > 100 |  | > 100
6 | CC1=C(CC(=O)c2cccc([N+](=O)[O-])c2)C(=O)c2ccccc2C1=O | 21.7 | > 100 | 38 | > 100 | 3.01 | 10.6 | 4.05 | 16.1 | 1.41 | 3.65 | 4.42 | 37.4 | 3.21 | 12.6 | 6.74 | 21.6 | 3.94 | 16.1 | 10.7 | 28.8
7 | c1ccc2c(c1)Nc1ccncc1S2 | 11.4 | 56 | 27.9 | > 100 | 20.5 | > 100 | 19.5 | > 100 | 28.7 | > 100 | 17 | 78.1 | 13.4 | 50.3 | 27.2 | > 100 | 31.1 | > 100 | 12.7 | 74
8 | COc1ccc(/C=C(\C#N)n2nnc3c(F)cccc32)cc1 | 0.122 | > 100 | 1.16 | > 47 | 0.363 | > 31.6 | 0.621 | > 83.1 | 0.715 | > 100 | 0.409 | > 100 | 0.161 | > 100 | 0.41 | 17.7 | 1.16 | > 100 | 0.573 | > 100
9 | Oc1ccc(C(c2ccc(O)cc2)c2ccc(Br)cn2)cc1 | 20.1 | > 100 | 0.322 | 2.98 | 0.517 | 14.4 | 6.12 | > 62 | 0.264 | 0.732 | 15.6 | 58.6 | 26 | > 86.3 | 18.5 | 50.9 | 17.4 | 61.5 | 6.14 | 40.7
10 | NS(=O)(=O)c1ccc(-c2cc3ccncc3cc2OCc2ccccc2)cc1 | > 23.8 | > 25 | > 25 | > 25 | > 14.8 | > 25 | 6.83 | > 25 | 14.5 | > 25 | > 18.2 | > 25 | 6.58 | > 23.4 | > 21.5 | > 25 | > 25 | > 25 | 14.5 | > 25
11 | COC1=C(OC)C(=O)C(SC/C=C(\C)CCCC(C)CCCC(C)CCCC(C)C)=CC1=O (centres undefined) | 6.64 | > 37 | 2.37 | > 100 | 0.574 | > 39.7 | 3.05 | > 100 | 0.455 | > 26.9 | 0.126 | 2.88 | 1.09 | > 100 | 0.479 | > 100 | 2.71 | > 100 | 1.24 | > 27.2
12 | Cc1cccc2c3c(sc12)C(c1ccc(Cl)cc1)C(C#N)=C(N)O3 (centres undefined) | 0.295 | 14.5 | 0.67 | 6.43 | 0.389 | 4.95 | 0.515 | 13.8 | 0.257 | 4.64 | 0.423 | 6.33 | 0.452 | > 33.9 | 0.408 | 11 | 11.8 | 27.3 | 0.664 | 16.2
13 | C[C@]12CC[C@@H]3c4cc(OC(F)F)c(OS(N)(=O)=O)cc4CC[C@H]3[C@@H]1CC[C@@H]2O | 0.485 | 44.1 | 1.04 | 14 | 0.434 | 15 | 0.592 | 27.3 | 0.39 | 20.8 | 0.449 | 21.9 | 0.303 | > 100 | 0.539 | 16.4 | 3.76 | 25.8 | 0.769 | 26.6
14 | COc1ccc(NC(=O)C2CCC(CNS(=O)(=O)c3ccccc3)CC2)cc1OC (centres undefined) | > 100 | > 100 | > 100 | > 100 | > 100 | > 100 | 26.8 | 86.8 | > 100 | > 100 | > 100 | > 100 | 0.542 | > 100 | 54 | > 100 | > 100 | > 100 | > 100 | > 100
15 | O=C(CC1(O)C(=O)N(Cc2ccccc2)c2ccccc21)c1ccc(C(=O)NCC2CCC3(CC2)OOC2(CCCCC2)OO3)cc1 (centres undefined) | 0.577 | 1.14 | 2.3 | 5.06 | 2.29 | 6.13 | 0.273 | 0.86 | 2.43 | 10.5 | 0.886 | 3.43 | 0.344 | 1.66 | 0.774 | 2.17 | 5.01 | 22.9 | 0.176 | 0.338
16 | O=C(Nc1cccc(-n2cc(-c3ccncc3)c(-c3cc(O)cc(Cl)c3)n2)c1)c1cc(C(F)(F)F)cc(C(F)(F)F)c1 | 3.67 | > 100 | 3.12 | 11.6 | 3.23 | > 100 | 9.82 | > 100 | 2.86 | > 100 | 2.5 | 12.7 | 1.61 | 5.01 | 3.23 | 24.4 | 4.23 | 51.2 | 2.5 | > 100
17 | C=CCN1CC(=O)N2[C@@H](Cc3ccc(O)cc3F)C(=O)N(Cc3cccc(N4CC(N5CCN(CC)CC5)C4)n3)C[C@@H]2N1C(=O)NCc1ccccc1 | 0.0507 | 0.504 | 0.0687 | > 100 | 0.0325 | > 100 | 0.0562 | > 100 | 0.524 | > 100 | 0.05 | 26.2 | 0.0292 | 1.7 | 0.0319 | > 100 | 0.0648 | 12.9 | 0.919 | > 100
18 | Cc1cc(C)nc(SC2=C(Nc3cc(Cl)ccc3O)C(=O)N(Cc3ccccc3)C2=O)n1 | > 160 | > 160 | > 160 | > 160 | 31.4 | > 160 | 27.6 | 101 | 20.5 | 109 | 3.57 | 25.7 | 18.6 | 70.6 | 38.6 | > 160 | 32.5 | 102 | 80.7 | > 160
19 | CCc1cccc(C)c1NC(=O)c1sc2nc3c(cc2c1N)C(=O)CCC3 | 0.537 | > 100 | 1.75 | > 100 | 0.564 | > 100 | 10.7 | > 100 | 0.396 | > 91.4 | 1.06 | > 24 | 0.501 | > 41.1 | 0.659 | > 100 | 12.5 | 76.1 | 2.25 | 99.8
20 | CCCCCCNC(=O)Oc1ccc(/C(=C(\C)c2ccc(Cl)cc2)c2ccc(OCCN3CCCCC3)cc2)cc1 | 4.03 | 8.25 | 4.39 | 9.17 | 0.962 | 4.78 | 5.28 | 11.9 | 0.104 | 5.38 | 1.84 | 9.68 | 0.727 | 2.14 | 3.52 | 7.92 | 4.13 | 9.98 | 2.14 | 6.57
21 | OC(C#Cc1ccccc1)(c1ccccc1)c1ccccc1 |  | 61.8 |  | > 100 |  | > 100 |  | > 100 |  | 45.7 |  | 47.4 |  | > 100 |  | 83.4 |  | > 100 |  | > 100
22 | c1ccc2cc(-c3n(Cc4ccc5ccccc5n4)c4ccccc4[n+]3Cc3ccc4ccccc4n3)ccc2c1 | 0.655 | 2 | 0.344 | 1.46 | 0.272 | 1.12 | 0.363 | 1.49 | 0.277 | 1.14 | 0.0802 | 0.52 | 0.362 | 1.42 | 0.242 | 1.14 | 0.275 | 1.04 | 1.34 | 2.66
